From patent US10696707B2, “Polyene macrolide derivative” (Shionogi & Co., Ltd., priority 2014, dated 2020)
Converted amounts (≈) assume the structure as drawn. Like-named read-outs stand apart in the source and are kept apart here. Values belong to the compound of their own block, whether it stands above or below them.

Columns and labels:
Assay type in all cases: cell-based
[1] = tested on: A. flavus ATCC204304; experiment: Antifungal activity test, MIC by broth microdilution (CLSI M38-A2)
Summary of the method: (§1)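 CLSI broth microdilution in RPMI 1640 with 2% glucose, 0.165 mol/L MOPS, pH 7.0; two-fold DMSO dilutions. MIC = lowest concentration giving 100% inhibition versus growth control.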

[2] = tested on: A. fumigatus ATCC204305; experiment: as above
Summary of the method: as §1

[3] = tested on: C. albicans ATCC90028; experiment: Antifungal activity test, MIC by broth microdilution (CLSI M27-A3)
Summary of the method: as §1

[4] = tested on: red blood cells (5% RBC suspension); experiment: Test Example 2-2: in vitro hemolytic activity test (upper limit 200 μmol/L); conditions: read-out: hemolysis IC50
Method: Nephrotoxic potentials of the compounds of the present invention whose X is —N(R^F)—CO—X^1 and X^1 is the group represented by formula (III) and T is —N(R^a5)— were investigated by in vitro hemolytic activity test under the condition that the upper limit was 200 μmol/L as the required concentration to 50% of hemolysis (IC50).
Defibrinated sterile blood was centrifuged at 700×g for 3 minutes and, and the supernatant was removed for 100% of red blood cells. After the cleaning with physiological saline, the washed blood cells was suspended in the medium (Earle's balanced salt sodium, bicarbonate, 0.1 g/L L-glutamine without phenol red), and was diluted by 5% (5% RBC suspension).
The washed blood was diluted by 5% in water for injection (solution of complete hemolysis), and was used as the indication of optical density for complete hemolysis.
The compounds of the present invention solution in DMSO (several and doubling dilutions starting from 10 mmol/L), DMSO as the negative control, and Amphotericin B as the positive control were used, and each 5 μL of these was added in to a well of V-form 96 well type microplate. Finally, the maximum concentration of the compounds of the present invention solution in DMSO was 200 μmol/L by adding 245 μL of the medium or 5% RBC suspension into the well.
Two hundred fifty μL of the solution of complete hemolysis was added into another well and the microplate was incubated at 37° C. in 5% of CO2 concentration for an hour.
After the incubation, each 100 μL of supernatants in wells was collected by centrifugation of the microplate at 300×g for 5 minutes and was located on a well of flat-form 96 well type microplate. An absorbance of each supernatant was measured at wavelength of 540 nm.
Percent hemolysis was calculated by using the followed equation. The required concentration to 50% of hemolysis (IC50) was calculated based on the percent hemolysis. […] Hemolysis (%)=(CR−VM)×100÷(VL−VR) Where:
CR: Absorbance of 5% RBC suspension incubated with the compounds of the present invention solution in DMSO
VM: Absorbance of medium incubated with the compounds of the present invention solution in DMSO
VL: Absorbance of solution of complete hemolysis
VR: Absorbance of 5% RBC suspension incubated with DMSO
The “>200” in the table means above IC50 value exceeded the upper concentration 200 μmol/L.

[5] = Erythrocyte, 1 h, Test Example 2-2, hemolysis method 200 (upper concentration 200 μmol/L), 5% RBC suspension, 37° C., one hour
[6] = A. flavus ATCC204304, broth microdilution, 35° C., 24-48 hours, 100% inhibition
[7] = A. fumigatus ATCC204305, broth microdilution, 35° C., 24-48 hours, 100% inhibition
[8] = C. albicans ATCC90028, broth microdilution, 35° C., 24-48 hours, 100% inhibition
[9] = Test Example 2-2, hemolysis method 200 (upper concentration 200 μmol/L), 5% RBC suspension, 37° C., one hour

MIC ([1]; Aspergillus flavus, A. flavus ATCC204304, broth microdilution, 35° C., 24-48 hours, 100% inhibition, read-out: MIC): 0.5 µg/mL (≈ 0.48 µM) | MIC ([2]; Aspergillus fumigatus, A. fumigatus ATCC204305, broth microdilution, 35° C., 24-48 hours, 100% inhibition, read-out: MIC): 1 µg/mL (≈ 0.96 µM) | MIC ([3]; Candida albicans, C. albicans ATCC90028, broth microdilution, 35° C., 24-48 hours, 100% inhibition, read-out: MIC): 0.5 µg/mL (≈ 0.48 µM)
Compound: C[C@@H]1[C@H](O)[C@@H](C)/C=C/C=C/C=C/C=C/C=C/C=C/C=C/[C@H](O[C@@H]2O[C@H](C)[C@@H](O)[C@H](N)[C@@H]2O)C[C@@H]2O[C@](O)(C[C@@H](O)C[C@@H](O)[C@H](O)CC[C@@H](O)C[C@@H](O)CC(=O)O[C@H]1C)C[C@H](O)[C@H]2NC(=O)NNC[C@@H](O)C(=O)O [I-310]
IC50 [4, 5]: > 200 µM

MIC [1, 6]: 0.5 µg/mL (≈ 0.472 µM) | MIC [2, 7]: 1 µg/mL (≈ 0.945 µM) | MIC [3, 8]: 0.25 µg/mL (≈ 0.236 µM)
Compound: C[C@@H]1[C@H](O)[C@@H](C)/C=C/C=C/C=C/C=C/C=C/C=C/C=C/[C@H](O[C@@H]2O[C@H](C)[C@@H](O)[C@H](N)[C@@H]2O)C[C@@H]2O[C@](O)(C[C@@H](O)C[C@@H](O)[C@H](O)CC[C@@H](O)C[C@@H](O)CC(=O)O[C@H]1C)C[C@H](O)[C@H]2NC(=O)NNC(=O)c1cccnc1 [I-45]
IC50 [4, 9]: > 200 µM

Compound: C[C@@H]1[C@H](O)[C@@H](C)/C=C/C=C/C=C/C=C/C=C/C=C/C=C/[C@H](O[C@@H]2O[C@H](C)[C@@H](O)[C@H](N)[C@@H]2O)C[C@@H]2O[C@](O)(C[C@@H](O)C[C@@H](O)[C@H](O)CC[C@@H](O)C[C@@H](O)CC(=O)O[C@H]1C)C[C@H](O)[C@H]2NC(=O)NNC(N)=O [I-60]
MIC ([1]; Aspergillus flavus, ATCC204304): 0.5 µg/mL (≈ 0.502 µM) | MIC ([2]; Aspergillus fumigatus, ATCC204305): 0.5 µg/mL (≈ 0.502 µM) | MIC ([3]; Candida albicans, ATCC90028): 0.125 µg/mL (≈ 0.125 µM) | IC50 ([4]; Erythrocyte, 1 h): > 200 µM

MIC [1, 6]: 0.5 µg/mL (≈ 0.475 µM) | MIC [2, 7]: 1 µg/mL (≈ 0.949 µM) | MIC [3, 8]: 0.5 µg/mL (≈ 0.475 µM)
Compound: C[C@@H]1[C@H](O)[C@@H](C)/C=C/C=C/C=C/C=C/C=C/C=C/C=C/[C@H](O[C@@H]2O[C@H](C)[C@@H](O)[C@H](N)[C@@H]2O)C[C@@H]2O[C@](O)(C[C@@H](O)C[C@@H](O)[C@H](O)CC[C@@H](O)C[C@@H](O)CC(=O)O[C@H]1C)C[C@H](O)[C@H]2NC(=O)NNC(=O)CCC(=O)O [I-261]
IC50 [4, 9]: > 200 µM

Compound: C[C@@H]1[C@H](O)[C@@H](C)/C=C/C=C/C=C/C=C/C=C/C=C/C=C/[C@H](O[C@@H]2O[C@H](C)[C@@H](O)[C@H](N)[C@@H]2O)C[C@@H]2O[C@](O)(C[C@@H](O)C[C@@H](O)[C@H](O)CC[C@@H](O)C[C@@H](O)CC(=O)O[C@H]1C)C[C@H](O)[C@H]2NC(=O)NNS(=O)(=O)c1c[nH]cn1 [I-214]
IC50 [4, 9]: > 200 µM

Compound: C[C@@H]1[C@H](O)[C@@H](C)/C=C/C=C/C=C/C=C/C=C/C=C/C=C/[C@H](O[C@@H]2O[C@H](C)[C@@H](O)[C@H](N)[C@@H]2O)C[C@@H]2O[C@](O)(C[C@@H](O)C[C@@H](O)[C@H](O)CC[C@@H](O)C[C@@H](O)CC(=O)O[C@H]1C)C[C@H](O)[C@H]2NC(=O)NNC(=O)c1ncccc1N [I-197]
IC50 [4, 9]: > 200 µM

Compound: C[C@@H]1[C@H](O)[C@@H](C)/C=C/C=C/C=C/C=C/C=C/C=C/C=C/[C@H](O[C@@H]2O[C@H](C)[C@@H](O)[C@H](N)[C@@H]2O)C[C@@H]2O[C@](O)(C[C@@H](O)C[C@@H](O)[C@H](O)CC[C@@H](O)C[C@@H](O)CC(=O)O[C@H]1C)C[C@H](O)[C@H]2NC(=O)NNC(=O)[C@H](O)[C@@H](O)[C@H](O)[C@H](O)CO [I-242]
IC50 [4, 9]: > 200 µM

Compound: C[C@@H]1[C@H](O)[C@@H](C)/C=C/C=C/C=C/C=C/C=C/C=C/C=C/[C@H](O[C@@H]2O[C@H](C)[C@@H](O)[C@H](N)[C@@H]2O)C[C@@H]2O[C@](O)(C[C@@H](O)C[C@@H](O)[C@H](O)CC[C@@H](O)C[C@@H](O)CC(=O)O[C@H]1C)C[C@H](O)[C@H]2NC(=O)NNC(=O)CNC(=O)Nc1cccnc1 [I-123]
IC50 [4, 9]: > 200 µM

Compound: C[C@@H]1[C@H](O)[C@@H](C)/C=C/C=C/C=C/C=C/C=C/C=C/C=C/[C@H](O[C@@H]2O[C@H](C)[C@@H](O)[C@H](N)[C@@H]2O)C[C@@H]2O[C@](O)(C[C@@H](O)C[C@@H](O)[C@H](O)CC[C@@H](O)C[C@@H](O)CC(=O)O[C@H]1C)C[C@H](O)[C@H]2NC(=O)NNC(=O)C1(CO)CC1 [I-247]
IC50 [4, 9]: > 200 µM

Compound: C[C@@H]1[C@H](O)[C@@H](C)/C=C/C=C/C=C/C=C/C=C/C=C/C=C/[C@H](O[C@@H]2O[C@H](C)[C@@H](O)[C@H](N)[C@@H]2O)C[C@@H]2O[C@](O)(C[C@@H](O)C[C@@H](O)[C@H](O)CC[C@@H](O)C[C@@H](O)CC(=O)O[C@H]1C)C[C@H](O)[C@H]2NC(=O)NNC(=O)NCC(N)=O [I-220]
IC50 [4, 9]: > 200 µM

Compound: C[C@@H]1[C@H](O)[C@@H](C)/C=C/C=C/C=C/C=C/C=C/C=C/C=C/[C@H](O[C@@H]2O[C@H](C)[C@@H](O)[C@H](N)[C@@H]2O)C[C@@H]2O[C@](O)(C[C@@H](O)C[C@@H](O)[C@H](O)CC[C@@H](O)C[C@@H](O)CC(=O)O[C@H]1C)C[C@H](O)[C@H]2NC(=O)NNC(=O)C[C@@H](O)C(=O)O [I-253]
IC50 [4, 9]: > 200 µM

Compound: COC(=O)NNC(=O)N[C@H]1[C@@H]2C[C@@H](O[C@@H]3O[C@H](C)[C@@H](O)[C@H](N)[C@@H]3O)/C=C/C=C/C=C/C=C/C=C/C=C/C=C/[C@H](C)[C@@H](O)[C@@H](C)[C@H](C)OC(=O)C[C@H](O)C[C@H](O)CC[C@@H](O)[C@H](O)C[C@H](O)C[C@](O)(C[C@@H]1O)O2 [I-47]
IC50 [4, 5]: > 200 µM

Compound: C[C@@H]1[C@H](O)[C@@H](C)/C=C/C=C/C=C/C=C/C=C/C=C/C=C/[C@H](O[C@@H]2O[C@H](C)[C@@H](O)[C@H](N)[C@@H]2O)C[C@@H]2O[C@](O)(C[C@@H](O)C[C@@H](O)[C@H](O)CC[C@@H](O)C[C@@H](O)CC(=O)O[C@H]1C)C[C@H](O)[C@H]2NC(=O)NNC(=O)NCC(O)CCl (stereo partly drawn) [I-229]
IC50 [4, 9]: > 200 µM

Compound: C[C@@H]1[C@H](O)[C@@H](C)/C=C/C=C/C=C/C=C/C=C/C=C/C=C/[C@H](O[C@@H]2O[C@H](C)[C@@H](O)[C@H](N)[C@@H]2O)C[C@@H]2O[C@](O)(C[C@@H](O)C[C@@H](O)[C@H](O)CC[C@@H](O)C[C@@H](O)CC(=O)O[C@H]1C)C[C@H](O)[C@H]2NC(=O)NNC(=O)C1(S(C)(=O)=O)CC1 [I-263]
IC50 ([4]; Erythrocyte, 1 h): > 200 µM

Compound: C[C@@H]1[C@H](O)[C@@H](C)/C=C/C=C/C=C/C=C/C=C/C=C/C=C/[C@H](O[C@@H]2O[C@H](C)[C@@H](O)[C@H](N)[C@@H]2O)C[C@@H]2O[C@](O)(C[C@@H](O)C[C@@H](O)[C@H](O)CC[C@@H](O)C[C@@H](O)CC(=O)O[C@H]1C)C[C@H](O)[C@H]2NC(=O)NNC(=O)NC[C@H](O)CO [I-225]
IC50 [4, 9]: > 200 µM

Compound: C[C@@H]1[C@H](O)[C@@H](C)/C=C/C=C/C=C/C=C/C=C/C=C/C=C/[C@H](O[C@@H]2O[C@H](C)[C@@H](O)[C@H](N)[C@@H]2O)C[C@@H]2O[C@](O)(C[C@@H](O)C[C@@H](O)[C@H](O)CC[C@@H](O)C[C@@H](O)CC(=O)O[C@H]1C)C[C@H](O)[C@H]2NC(=O)NNS(=O)(=O)c1nnc[nH]1 [I-246]
IC50 ([4]; Erythrocyte, 1 h): > 200 µM

Compound: C[C@@H]1[C@H](O)[C@@H](C)/C=C/C=C/C=C/C=C/C=C/C=C/C=C/[C@H](O[C@@H]2O[C@H](C)[C@@H](O)[C@H](N)[C@@H]2O)C[C@@H]2O[C@](O)(C[C@@H](O)C[C@@H](O)[C@H](O)CC[C@@H](O)C[C@@H](O)CC(=O)O[C@H]1C)C[C@H](O)[C@H]2NC(=O)NNC(=O)C(C)(C)CO [I-232]
IC50 [4, 9]: > 200 µM

Compound: C[C@@H]1[C@H](O)[C@@H](C)/C=C/C=C/C=C/C=C/C=C/C=C/C=C/[C@H](O[C@@H]2O[C@H](C)[C@@H](O)[C@H](N)[C@@H]2O)C[C@@H]2O[C@](O)(C[C@@H](O)C[C@@H](O)[C@H](O)CC[C@@H](O)C[C@@H](O)CC(=O)O[C@H]1C)C[C@H](O)[C@H]2NC(=O)NNC(=O)C1(O)CC1 [I-257]
IC50 [4, 9]: > 200 µM
